Test results published in US12097192B2 (Corcept Therapeutics Incorporated, priority 2019, dated 2024).

Tests used:
[1] = test system: Cushing's syndrome patients; assay: Cushing's syndrome patient study: glucose control / hyperglycemia response; type: in vivo, human; details: for Fructosamine, IGT mean change from Baseline to Last Observed / HOMA-IR, IGT mean change from Baseline to Last Observed / AUCglucose mean change from Baseline to Last Observed / AUCinsulin mean change from Baseline to Last Observed: All Subjects
Source text: (§1) All patients gave informed consent before participating in any study-related procedures. […] The study protocol called for patient visits to the study site at screening, on Day 1 (baseline), Weeks 2, 4, 6, 8, 10, and 12, and after a 4-week follow-up period for Group 1. For Group 2, the protocol called for patient visits to the study site at screening, on Day 1 (baseline), Weeks 2, 4, 6, 8, 10, 12, 14, and 16, and after a 4-week follow-up period. Patient dosing will be done at home, except on days of study visits. Response criteria for hyperglycemia were changes from baseline in glucose tolerance as measured by: ≥0.5% decrease in HbA1c, normalization or ≥50 mg/dL decrease in 2-hr OGTT glucose, or decrease in total daily insulin (≥25%) or sulfonylurea dose (≥50%). Response criteria for hypertension (HTN) was a ≥5 mm Hg decrease in mean systolic and/or diastolic blood pressure (SBP/DBP). […] It ignores noncompliance, protocol deviations, withdrawal, and anything that happens after randomization. In contrast, per-protocol (PP) analysis refers to inclusion in the analysis of only those patients who strictly adhered to the protocol. The PP analysis provides an estimate of the true efficacy of an intervention, i.e., among those who completed the treatment as planned.

[2] = test system: Cushing's syndrome patients; assay: Cushing's syndrome patient study: depression (BDI-II), Cushing QOL, cognitive tests; type: in vivo, human; details: All Subjects
Source text: as §1, with “visits.” for “visits. Response criteria for hyperglycemia were changes from baseline in glucose tolerance as measured by: ≥0.5% decrease in HbA1c, normalization or ≥50 mg/dL decrease in 2-hr OGTT glucose, or decrease in total daily insulin (≥25%) or sulfonylurea dose (≥50%). Response criteria for hypertension (HTN) was a ≥5 mm Hg decrease in mean systolic and/or diastolic blood pressure (SBP/DBP).”

[3] = test system: Cushing's syndrome patients; assay: Cushing's syndrome patient study: absolute eosinophils and lymphocytes; type: in vivo, human; details: All Subjects, mITT
Source text: as §1, with “[…] The safety protocol also included assessments by physical examination findings, vital signs, ECG results, pregnancy tests, clinical laboratory test results (hematology and chemistry panels), adverse events (AEs), and concomitant medications.” for “Response criteria for hyperglycemia were changes from baseline in glucose tolerance as measured by: ≥0.5% decrease in HbA1c, normalization or ≥50 mg/dL decrease in 2-hr OGTT glucose, or decrease in total daily insulin (≥25%) or sulfonylurea dose (≥50%). Response criteria for hypertension (HTN) was a ≥5 mm Hg decrease in mean systolic and/or diastolic blood pressure (SBP/DBP).”

[4] = Relacorilant in healthy subjects (human volunteers): tolerability and steady state; type: in vivo
[5] = mITT, Group 1 (100-200 mg/day, 12 weeks)
[6] = mITT, Group 2 (250-400 mg/day, 16 weeks)
[7] = mPP, Group 1 (100-200 mg/day, 12 weeks)
[8] = mPP, Group 2 (250-400 mg/day, 16 weeks)
[9] = Group 1 (100-200 mg/day, 12 weeks)
[10] = Group 2 (250-400 mg/day, 16 weeks)

SMILES: Cn1cc(S(=O)(=O)N2CCC3=Cc4c(cnn4-c4ccc(F)cc4)C[C@]3(C(=O)c3cc(C(F)(F)F)ccn3)C2)cn1 [relacorilant, (R)-(1-(4-fluorophenyl)-6-((1-methyl-1H-pyrazol-4-yl)sulfonyl)-4,4a,5,6,7,8-hexahydro-1H-pyrazolo[3,4-g]isoquinolin-4a-yl) (4-(trifluoromethyl)pyridin-2-yl)methanone]
- Fructosamine, IGT mean change from Baseline to Last Observed [1, 5]: -6.85 µmol/L
- HOMA-IR, IGT mean change from Baseline to Last Observed [1, 5]: 0.05
- Fructosamine, IGT mean change from Baseline to Last Observed [1, 6]: -21.58 µmol/L
- HOMA-IR, IGT mean change from Baseline to Last Observed [1, 6]: −3.2
- Fructosamine, IGT mean change from Baseline to Last Observed ([1]; mITT, Overall): -13.92 µmol/L
- HOMA-IR, IGT mean change from Baseline to Last Observed ([1]; mITT, Overall): −1.58
- Fructosamine, IGT mean change from Baseline to Last Observed [1, 7]: -8.08 µmol/L
- HOMA-IR, IGT mean change from Baseline to Last Observed [1, 7]: 0.39
- Fructosamine, IGT mean change from Baseline to Last Observed [1, 8]: -18.92 µmol/L
- HOMA-IR, IGT mean change from Baseline to Last Observed [1, 8]: −3.28
- Fructosamine, IGT mean change from Baseline to Last Observed ([1]; mPP, Overall): -13.28 µmol/L
- HOMA-IR, IGT mean change from Baseline to Last Observed ([1]; mPP, Overall): −1.37
- AUCglucose mean change from Baseline to Last Observed [1, 5]: -3.11 mmol·h/L
- AUCinsulin mean change from Baseline to Last Observed [1, 5]: −33.28 hr * μU/mL
- AUCglucose mean change from Baseline to Last Observed [1, 6]: -0.8 mmol·h/L
- AUCinsulin mean change from Baseline to Last Observed [1, 6]: −32.26 hr * μU/mL
- AUCglucose mean change from Baseline to Last Observed ([1]; mITT, Overall): -1.96 mmol·h/L
- AUCinsulin mean change from Baseline to Last Observed ([1]; mITT, Overall): −32.77 hr * μU/mL
- AUCglucose mean change from Baseline to Last Observed [1, 7]: -3.63 mmol·h/L
- AUCinsulin mean change from Baseline to Last Observed [1, 7]: −38.79 hr * μU/mL
- AUCglucose mean change from Baseline to Last Observed [1, 8]: -1.24 mmol·h/L
- AUCinsulin mean change from Baseline to Last Observed [1, 8]: −37.39 hr * μU/mL
- AUCglucose mean change from Baseline to Last Observed ([1]; mPP, Overall): -2.48 mmol·h/L
- AUCinsulin mean change from Baseline to Last Observed ([1]; mPP, Overall): −38.12 hr * μU/mL
- AUCglucose in patients with hyperglycemia ([1]; Cushing's syndrome patients): statistically significant reduction
- hyperglycemia response rate ([1]; HD group (doses up to 400 mg), week 16): 50%
- hyperglycemia response rate ([1]; LD group (doses up to 200 mg), week 12): 15.4%
- patients with hyperglycaemia showing glycaemic improvement (responders/patients) ([1]; doses up to 400 mg): 6/12
- BDI-II Total Score mean change from Baseline to Last Observed [2, 5]: −3.06
- Cushing QOL Score mean change from Baseline to Last Observed [2, 5]: 6.25
- Part A - Total Time to Complete T mean change from Baseline to Last Observed [2, 5]: −3.65
- Part B - Total Time to Complete T mean change from Baseline to Last Observed [2, 5]: −15.94
- BDI-II Total Score mean change from Baseline to Last Observed [2, 6]: −3.94
- Cushing QOL Score mean change from Baseline to Last Observed [2, 6]: 8.07
- Part A - Total Time to Complete T mean change from Baseline to Last Observed [2, 6]: −4.67
- Part B - Total Time to Complete T mean change from Baseline to Last Observed [2, 6]: −34.6
- BDI-II Total Score mean change from Baseline to Last Observed ([2]; mITT, Overall): −3.48
- Cushing QOL Score mean change from Baseline to Last Observed ([2]; mITT, Overall): 7.13
- Part A - Total Time to Complete T mean change from Baseline to Last Observed ([2]; mITT, Overall): −4.13
- Part B - Total Time to Complete T mean change from Baseline to Last Observed ([2]; mITT, Overall): −24.69
- BDI-II Total Score mean change from Baseline to Last Observed [2, 7]: −4.47
- Cushing QOL Score mean change from Baseline to Last Observed [2, 7]: 6.25
- Part A - Total Time to Complete T mean change from Baseline to Last Observed [2, 7]: −3.65
- Part B - Total Time to Complete T mean change from Baseline to Last Observed [2, 7]: −15.94
- BDI-II Total Score mean change from Baseline to Last Observed [2, 8]: −3.87
- Cushing QOL Score mean change from Baseline to Last Observed [2, 8]: 7.64
- Part A - Total Time to Complete T mean change from Baseline to Last Observed [2, 8]: −4.67
- Part B - Total Time to Complete T mean change from Baseline to Last Observed [2, 8]: −34.6
- BDI-II Total Score mean change from Baseline to Last Observed ([2]; mPP, Overall): −4.19
- Cushing QOL Score mean change from Baseline to Last Observed ([2]; mPP, Overall): 6.9
- Part A - Total Time to Complete T mean change from Baseline to Last Observed ([2]; mPP, Overall): −4.13
- Part B - Total Time to Complete T mean change from Baseline to Last Observed ([2]; mPP, Overall): −24.69
- Absolute Eosinophils mean change from Baseline to Last Observed [3, 9]: 0.05 10^{super 9
- Absolute Lymphocytes mean change from Baseline to Last Observed [3, 9]: −0.15 10^{super 9
- Absolute Eosinophils mean change from Baseline to Last Observed [3, 10]: 0.05 10^{super 9
- Absolute Lymphocytes mean change from Baseline to Last Observed [3, 10]: 0.26 10^{super 9
- Absolute Eosinophils mean change from Baseline to Last Observed ([3]; Overall): 0.05 10^{super 9
- Absolute Lymphocytes mean change from Baseline to Last Observed ([3]; Overall): 0.05 10^{super 9
- tolerability of 14 days of dosing ([4]; human subjects, 14 days at 50 mg, 150 mg and 250 mg): well-tolerated
- achievement of steady state levels ([4]; human volunteers, daily dosing): ≤ 7 days
- tolerability of single doses ([4]; human, in vivo): well-tolerated
- platelet count ([4]; some healthy subjects, non-dose-dependent, resolved by study end): transient reduction in platelet count
- adverse events at 500 mg ([4]; some subjects who received 500-mg relacorilant): (non-serious) musculoskeletal adverse events
- adverse events with repeat doses ([4]; some subjects, repeat doses up to 250 mg): mild to moderate musculoskeletal AEs
